Literature values as cited in the PKSmart pharmacokinetics tables (Seal et al. 2025).

Test: Lombardo, Berellini, Obach 2018, Drug Metab Dispos 46:1466, doi 10.1124/dmd.118.082966
Settings: human; for MRT / Vd / clearance / half-life: in vivo, iv; for fraction unbound: plasma

SMILES	MRT	Vd	clearance	half-life	fraction unbound
CC(=N)N1CC[C@H](Oc2ccc(C(Cc3ccc4ccc(C(=N)N)cc4c3)C(=O)O)cc2)C1 (some centres not stated)	14.4 h	1.55 L/kg	1.86 mL/min/kg	24 h	
OCc1cc([C@@H](O)CNCCCCCCOCCOCc2c(Cl)cccc2Cl)ccc1O	1.53 h	2.38 L/kg	25.7 mL/min/kg	2.4 h	0.06
COc1cccc2c1C(=O)c1c(O)c3c(c(O)c1C2=O)C[C@@](O)(C(=O)CO)C[C@@H]3O[C@H]1C[C@H](N2CCO[C@H](OC)C2)[C@H](O)[C@H](C)O1	53.3 h	49 L/kg	15.3 mL/min/kg	49.2 h	
CC(C(=O)O)c1ccc(N2Cc3ccccc3C2=O)cc1 (configuration not stated)	2.7 h	0.12 L/kg	0.65 mL/min/kg	2.11 h	0.01
CCCN(CCc1cccs1)[C@H]1CCc2c(O)cccc2C1	2.6 h	5.7 L/kg	37 mL/min/kg	4 h	0.08
CC(=O)N1CCN([C@H]2CCN(C(=O)N(C)[C@H](C)c3cc(C(F)(F)F)cc(C(F)(F)F)c3)[C@@H](c3ccc(F)cc3C)C2)CC1	15 h	2.77 L/kg	3.07 mL/min/kg	15.6 h	1
CC[C@@]1(O)C[C@H](O[C@@H]2C[C@H](N3CCOCC3)[C@H](O)[C@H](C)O2)c2c(O)c3c(c(O)c2[C@H]1O)C(=O)c1cccc(O)c1C3=O	8 h	20.9 L/kg	42.8 mL/min/kg	10.7 h	0.09
Cc1nc2n(c(=O)c1CCN1CCC(c3noc4cc(F)ccc34)CC1)CCCC2O (configuration not stated)			1.18 mL/min/kg	24.6 h	0.24
Cc1nccn1CCC(C(N)=O)(c1ccccc1)c1ccccc1	4.1 h	1.51 L/kg	6.1 mL/min/kg	3.2 h	0.12
CN(C)CCn1nnnc1SCC1=C(C(=O)O)N2C(=O)C(NC(=O)Cc3csc(N)n3)[C@H]2SC1 (some centres not stated)	0.76 h	0.26 L/kg	5.8 mL/min/kg	0.84 h	0.5
CNC(=O)c1ccccc1Sc1ccc2c(/C=C/c3ccccn3)n[nH]c2c1			5 mL/min/kg	4.3 h	0.004
Cc1ccccc1-c1cc(N2CCN(C)CC2)ncc1N(C)C(=O)C(C)(C)c1cc(C(F)(F)F)cc(C(F)(F)F)c1	32.6 h	5.54 L/kg	2.83 mL/min/kg	34.3 h	0.003
COc1cccc2c1[C@H](CO)N1[C@H](C#N)[C@@H]3CC(C(=O)O)[C@H]([C@@H]1C2)N3C (some centres not stated)	1.23 h	0.23 L/kg	3.06 mL/min/kg	1.52 h	
NCCCCC(NC1CCc2ccccc2N(CC(=O)O)C1=O)C(=O)O (configuration not stated)	29.3 h	1.98 L/kg	1.23 mL/min/kg		
CCCCNC(=N)NC(=N)N	4.66 h	1.84 L/kg	6.58 mL/min/kg	4.62 h	
CCOc1ccc(CC2=NCCc3cc(OCC)c(OCC)cc32)cc1OCC	9 h	1.9 L/kg	3.5 mL/min/kg	9.3 h	
Cc1cc2c(OCC(O)CNC(C)C)cccc2[nH]1 (configuration not stated)	6.21 h	2.17 L/kg	5.83 mL/min/kg	4.61 h	0.51

SMILES	MRT	Vd	clearance	half-life	fraction unbound
CCCCCc1cc(O)c2c(c1)OC(C)(C)c1ccc(C)cc1-2	15.9 h	17 L/kg	17.9 mL/min/kg	25.5 h	
CNC[C@H](O)CC12CCC(c3ccccc31)c1ccccc12	21.4 h	18.8 L/kg	14.6 mL/min/kg	18.8 h	
CCOC(=O)C1=C(C)NC(C)=C(C(=O)OC)C1c1cccc([N+](=O)[O-])c1 (configuration not stated)	4.1 h	6.1 L/kg	25 mL/min/kg	8.2 h	0.02
CCOC(=O)C1=C[C@]2(CC)CCCN3CCc4c(n1c1ccccc41)[C@@H]32	5.68 h	2.08 L/kg	6.1 mL/min/kg	4.83 h	0.02
CCN[C@@H](C)Cc1cccc(C(F)(F)F)c1	18 h	11 L/kg	11 mL/min/kg	14 h	0.66
C/C=C(\C)C(=O)O[C@H]1[C@H](OC(C)=O)[C@]2(CO)[C@H](O)C[C@]3(C)C(=CC[C@@H]4[C@@]5(C)CC[C@H](O[C@@H]6OC(C(=O)O)[C@@H](O[C@@H]7O[C@H](CO)[C@@H](O)[C@H](O)[C@H]7O)[C@H](O)[C@H]6O[C@@H]6O[C@H](CO)[C@@H](O)[C@H](O)[C@H]6O)[C@](C)(CO)[C@@H]5CC[C@]43C)[C@@H]2CC1(C)C (some centres not stated)	2.85 h	0.28 L/kg	1.65 mL/min/kg	2.4 h	
CC[C@@]1(O)C(=O)OCc2c1cc1n(c2=O)Cc2c-1nc1ccc(O)cc1c2[Si](C)(C)C(C)(C)C	1.3 h	0.47 L/kg	6 mL/min/kg	1.4 h	
C[C@]12CC[C@H]3[C@@H](CC=C4CC(=O)CC[C@@]43C)[C@@H]1CC[C@@H]2O	0.25 h	0.35 L/kg	24.5 mL/min/kg	0.17 h	0.057
Cc1nccn1CC1CCc2c(c3ccccc3n2C)C1=O (configuration not stated)	5.2 h	1.8 L/kg	5.8 mL/min/kg	3.4 h	
C[N+](C)(C)NCCC(=O)[O-]	4.3 h	0.7 L/kg	2.8 mL/min/kg	6.2 h	
N[C@@H]1CN(c2c(F)cc3c(=O)c(C(=O)O)cn([C@@H]4C[C@@H]4F)c3c2Cl)CC12CC2	6.7 h	1.5 L/kg	3.7 mL/min/kg	6.6 h	
COc1ccnc(C[S+](O)c2nc3cc(-n4cccc4)ccc3[n-]2)c1C (configuration not stated)	4.32 h	0.19 L/kg	0.73 mL/min/kg	3.59 h	
O=C(O)C(CCc1ccccc1)NC1CCCN2CCCC(C(=O)O)N2C1=O (configuration not stated)	29.5 h	3.7 L/kg	2.1 mL/min/kg	50.6 h	
COc1c2occc2cc2ccc(=O)oc12	0.88 h	0.61 L/kg			0.09
CCC(=O)NC[C@@H]1C[C@H]1c1cccc2c1CCO2	0.62 h	0.33 L/kg	9.04 mL/min/kg	0.75 h	
NCCc1ccc(O)c(O)c1	0.19 h	0.74 L/kg	65.9 mL/min/kg	0.42 h	0.87
